# Source: PubChem BioAssay AID1981 (Southern Research Specialized Biocontainment Screening …, 2009)
# pIC50: −log10 of the molar value.
# System: S. Typhimurium PhoP-promoter GFP reporter counterscreen, fluorescence, 4 h
# Experiment: S. Typhimurium GFP fluorescence dose response in modified counterscreen for PhoP regulon inhibitor project (AID 1981)
row,Structure (SMILES),pIC50
1,O=C(N/N=C/c1ccc([N+](=O)[O-])s1)C(O)c1ccccc1 (configuration not stated),4.17
2,Cc1ccccc1Nc1cc(C)c2c(O)cccc2n1,4.05
3,CCN1/C(=C/C=C/c2sc3ccccc3[n+]2CC)Sc2ccccc21,4.43
4,CCCCCCCCCC[n+]1cccc2c3ccccc3ccc21,4.36
5,C/C(=C\C(=O)OCCCCCCCCC(=O)O)C[C@@H]1OC[C@H](C[C@@H]2O[C@H]2[C@@H](C)[C@H](C)O)[C@@H](O)[C@H]1O,4.85
6,CCCCC(CC)CN=C(N)NC(N)=NCCCCCCN=C(N)NC(N)=NCC(CC)CCCC (configuration not stated),5.26
7,Fc1ccccc1CCNCc1ccccc1,4.31
8,CC1CCC(C(C)C)C(OC(=O)Cn2c(COc3ccccc3)[n+](C)c3ccccc32)C1 (configuration not stated),4.07
9,Oc1cccc(Nc2nc(NCC3CCCO3)c3ccccc3n2)c1 (configuration not stated),3.83
10,COc1cccc(/C=N/Nc2ncc(C(F)(F)F)cc2Cl)c1O,4.46
11,O=[N+]([O-])c1cc(F)c2cccnc2c1O,5.02
12,Oc1ccc(/C=N/Nc2ncc(Br)cn2)c(O)c1,3.89
